One series can be described thus: Release kinetics in solution: t1/2, time for one half of the molecule to cleave and release the azole moiety. The format is physicochemical. The conditions noted are these: 1×10^-4 molar in 30% acetonitrile/0.25 N aqueous KOH, 22°±0.1° C.; release of azole moiety. From the text: The release kinetics in solution of the compounds of the invention vary over a wide range.
*rate of hydrolysis approximates rate of release
**measured in 50% ethanol/water solution
***solution was 0.022N in KOH
For the compound `Cn1c(=O)[nH]cc(CSc2nnnn2-c2ccc(O)cc2)c1=O` [Compound XI], the t1/2 stood at 4.0 s.
In the case of `O=c1[nH]cc(CSc2ncccn2)c(=O)[nH]1` [Compound XVIII], the t1/2 was 35.9 s.
Compound `O=c1[nH]cc(CSc2ncnc3[nH]cnc23)c(=O)[nH]1` [Compound XVII] showed a t1/2 of 77.8 s.
On the same count and under the same terms, next, `CC(=NO)c1ccc(-n2nnnc2SCc2c[nH]c(=O)n(C)c2=O)cc1` [Compound XXVI]: 0.87 s; `CC(=O)n1c(=O)[nH]cc(Cn2nnn(-c3ccccc3)c2=S)c1=O` [Compound XXXI]: 911 s; `O=c1[nH]cc(Cn2nc(-c3ccccc3)oc2=S)c(=O)[nH]1` [Compound X]: 1080 s.
For `Cn1c(=O)[nH]cc(CSc2nnnn2-c2ccccc2)c1=O` [II], the t1/2 is 0.81 s.
The compound `Cn1c(=O)[nH]cc(Cn2nnn(-c3ccccc3)c2=S)c1=O` [VIII] returned a t1/2 of 1512 s.
The same measure, in the same setting: under `O=c1[nH]cc(Cn2nnn(-c3ccccc3)c2=S)c(=O)[nH]1` [VII] stands 900 s; under `O=C(c1ccccc1)n1c(=O)[nH]cc(CSc2nnnn2-c2ccccc2)c1=O` [XII], 31.2 s; under `O=c1[nH]cc(Cn2nc(-c3cccs3)oc2=S)c(=O)[nH]1` [XIV], 4320 s.

Staying with this series, now noted: 30% acetonitrile/0.25 N aqueous KOH, 22° C.; rate of hydrolysis approximates rate of release.
Regarding `CC(=O)Oc1ccc(-n2nnnc2SCc2c[nH]c(=O)n(C)c2=O)cc1` [V], the t1/2 is 1.8 to 4.0 s.

Staying with this series, now noted: hydrolysis; 30% acetonitrile/0.25 N aqueous KOH, 22° C.
Turning to `CC(=O)Oc1ccc(-n2nnnc2SCc2c[nH]c(=O)[nH]c2=O)cc1` [Compound XX], the “t1/2 (hydrolysis)” value was 2.5 s.

The series is the same for the next values; noted with them: measured in 50% ethanol/water solution; 22° C.
As for `Cc1ccc(Nc2nnc([Se]Cc3c[nH]c(=O)[nH]c3=O)[se]2)cc1` [Compound XIX], the t1/2 came to 48.8 s.

For the origin of these results see patent US4350754A, “Blocked development restrainers” (Polaroid Corporation, priority 1981, dated 1982).
